# Measurements as given in patent US20230210825A1, “METHODS AND COMPOSITIONS FOR TREATING SUBJECTS WITH METABOLIC DISORDERS AND CORONAVIRUS INFECTIONS” (CIRIUS THERAPEUTICS, INC., priority 2020, published 2023).
# Assays:
# [1] = system: subjects with biopsy proven non-alcoholic steatohepatitis (NASH) with fibrosis and no cirrhosis; experiment: EMMINENCE Phase 2b clinical trial; assay type: in vivo, human
# [2] = system: diet-induced obese (60% HF diet) WT (fl/fl) and LS-MPC2−/− mice; experiment: Single dose in diet-induced obese WT and LS-MPC2−/− mice (GTT, plasma insulin, ALT, liver qPCR); conditions: for glucose tolerance (GTT): 20 h after a single gavage of 30 mg/kg, vs vehicle
# [3] = 250 mg, N = 101, mean, baseline to 12-month endpoint
smiles,measurement,setting,value
COc1cccc(C(=O)COc2ccc(CC3SC(=O)NC3=O)cc2)c1 (stereo not drawn) [MSDC-0602K],Leucine Change from Baseline,"[1]; 62.5 mg, N = 99, mean, baseline to 12-month endpoint",−6.74
same,Valine Change from Baseline,"[1]; 125 mg, mean, baseline to 12-month endpoint",−6.08
same,Isoleucine Visit 7,"[1]; 250 mg, N = 101, mean, 12-month endpoint",56.15
same,Leucine Change from Baseline,[1]; [3],−10.55
same,TotalBCAA Change from Baseline,[1]; [3],−37.80
same,Branched Chain Amino Acids (BCAA),[1]; baseline to 12-month endpoint (Visit 7),reduced
same,glucose tolerance (GTT),[2]; LS-MPC2−/− mice,no improvement in glucose tolerance
same,plasma ALT and liver injury gene expression in LS-MPC2−/− mice,"[2]; LS-MPC2−/− mice, acute treatment",refractory to the beneficial effects
same,glucose tolerance (GTT),[2]; WT mice,improved glucose tolerance
same,plasma ALT concentrations,"[2]; WT mice, single dose (FIG. 8A)",decreased plasma ALT concentrations
same,gene expression for hepatic stellate cell activation and fibrotic scar formation,"[2]; WT mice, single dose (FIG. 8B)",decreased gene expression
same,plasma insulin values,"[2]; both WT and LS-MPC2−/− mice, single dose 30 mg/kg",decreased
